The term pIC50 denotes −log10 of the IC50, conventionally taken in molar units.

This is an account of results in patent publication US20230357269A1 (LES LABORATOIRES SERVIER, priority 2020, published 2023).

Each structure is given as a SMILES string. pIC50: −log10 of the molar value.

Chain of human recombinant LRRK2 protein (Q5S007 whole entry): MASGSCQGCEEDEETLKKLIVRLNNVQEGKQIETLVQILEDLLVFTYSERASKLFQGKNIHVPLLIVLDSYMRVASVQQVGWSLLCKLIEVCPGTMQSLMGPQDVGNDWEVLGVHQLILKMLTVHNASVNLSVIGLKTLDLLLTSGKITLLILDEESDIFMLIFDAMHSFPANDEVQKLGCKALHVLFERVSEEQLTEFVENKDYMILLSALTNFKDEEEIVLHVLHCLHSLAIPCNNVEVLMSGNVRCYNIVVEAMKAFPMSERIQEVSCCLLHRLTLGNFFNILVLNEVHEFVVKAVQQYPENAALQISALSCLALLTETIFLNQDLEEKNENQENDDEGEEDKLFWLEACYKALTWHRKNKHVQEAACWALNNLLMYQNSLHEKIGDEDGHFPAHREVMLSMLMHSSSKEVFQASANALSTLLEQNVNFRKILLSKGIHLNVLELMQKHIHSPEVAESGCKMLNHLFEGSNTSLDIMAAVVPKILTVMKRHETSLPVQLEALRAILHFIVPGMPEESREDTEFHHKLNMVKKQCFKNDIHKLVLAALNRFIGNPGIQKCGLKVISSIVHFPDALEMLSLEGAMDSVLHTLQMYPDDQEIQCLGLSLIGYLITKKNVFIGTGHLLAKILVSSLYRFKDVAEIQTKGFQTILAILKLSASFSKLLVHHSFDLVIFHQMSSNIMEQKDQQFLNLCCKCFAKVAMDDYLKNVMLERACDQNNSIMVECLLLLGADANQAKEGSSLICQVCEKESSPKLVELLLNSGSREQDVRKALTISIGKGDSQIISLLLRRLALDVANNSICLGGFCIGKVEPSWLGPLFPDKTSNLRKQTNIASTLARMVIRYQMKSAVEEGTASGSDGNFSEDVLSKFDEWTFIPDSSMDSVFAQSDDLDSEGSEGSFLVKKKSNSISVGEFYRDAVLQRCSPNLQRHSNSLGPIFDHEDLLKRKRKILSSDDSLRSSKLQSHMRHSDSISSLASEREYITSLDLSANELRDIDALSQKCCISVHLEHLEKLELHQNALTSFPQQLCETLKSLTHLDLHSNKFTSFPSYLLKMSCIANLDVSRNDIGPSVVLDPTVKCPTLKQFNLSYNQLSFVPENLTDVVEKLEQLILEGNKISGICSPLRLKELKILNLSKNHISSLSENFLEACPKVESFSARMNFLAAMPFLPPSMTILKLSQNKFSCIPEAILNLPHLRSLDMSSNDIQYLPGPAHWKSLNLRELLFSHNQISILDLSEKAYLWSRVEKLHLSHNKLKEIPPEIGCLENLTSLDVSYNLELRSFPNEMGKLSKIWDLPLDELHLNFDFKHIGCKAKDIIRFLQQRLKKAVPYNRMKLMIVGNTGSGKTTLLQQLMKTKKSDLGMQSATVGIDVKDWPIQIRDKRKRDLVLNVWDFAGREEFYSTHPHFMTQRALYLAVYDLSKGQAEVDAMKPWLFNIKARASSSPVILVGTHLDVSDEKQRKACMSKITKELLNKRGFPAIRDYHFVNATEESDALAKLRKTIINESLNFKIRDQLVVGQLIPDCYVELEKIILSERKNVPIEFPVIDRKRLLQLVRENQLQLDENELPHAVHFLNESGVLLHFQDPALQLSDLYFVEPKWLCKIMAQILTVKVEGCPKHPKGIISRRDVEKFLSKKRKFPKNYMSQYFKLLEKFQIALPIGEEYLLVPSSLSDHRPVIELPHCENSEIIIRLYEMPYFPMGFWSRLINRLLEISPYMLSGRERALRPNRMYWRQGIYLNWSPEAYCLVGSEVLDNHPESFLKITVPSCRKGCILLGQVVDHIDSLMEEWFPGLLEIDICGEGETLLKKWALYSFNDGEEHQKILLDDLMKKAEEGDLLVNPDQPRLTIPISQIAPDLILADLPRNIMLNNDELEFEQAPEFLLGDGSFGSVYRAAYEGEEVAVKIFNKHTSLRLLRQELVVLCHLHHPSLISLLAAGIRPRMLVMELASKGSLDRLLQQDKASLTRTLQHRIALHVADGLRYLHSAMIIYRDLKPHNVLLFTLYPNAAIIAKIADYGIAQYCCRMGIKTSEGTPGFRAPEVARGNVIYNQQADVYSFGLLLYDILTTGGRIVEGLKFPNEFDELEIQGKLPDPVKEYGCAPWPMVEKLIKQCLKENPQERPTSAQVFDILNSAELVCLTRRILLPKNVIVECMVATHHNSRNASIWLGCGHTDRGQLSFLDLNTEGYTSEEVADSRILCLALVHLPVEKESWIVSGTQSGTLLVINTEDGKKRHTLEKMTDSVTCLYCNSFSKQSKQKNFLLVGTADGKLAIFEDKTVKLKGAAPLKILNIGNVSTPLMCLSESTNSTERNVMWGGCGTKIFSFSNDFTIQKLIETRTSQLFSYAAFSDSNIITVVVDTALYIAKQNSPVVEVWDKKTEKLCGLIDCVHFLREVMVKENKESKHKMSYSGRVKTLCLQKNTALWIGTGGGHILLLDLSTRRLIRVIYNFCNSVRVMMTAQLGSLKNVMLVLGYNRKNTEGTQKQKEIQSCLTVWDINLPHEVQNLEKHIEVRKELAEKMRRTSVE

The test concerns the target human recombinant LRRK2 protein (Homo sapiens (Human), UniProt Q5S007). Briefly: LRRK2 Kinase Activity Assay (ADP-Glo). It is filed as biochemical. Conditions: LRRK2 wt; LRRKtide peptide and ATP substrates; 1h-incubation at 37° C. The method, then: LRRK2 Kinase reactions were carried out in 384-well white polystyrene plates in a final volume of 6 μl using ADP-Glo™ Kinase Assay kit (Promega Corp.). Compound and substrates (LRRKtide peptide and ATP) in assay buffer were first dispensed in wells. Kinase reaction was then started by the addition of human recombinant LRRK2 protein. After 1h-incubation at 37° C., the enzymatic reaction was stopped by the addition of 6 μl of ADP-Glo Reagent-1 and an additional 40-minutes incubation at 23° C. (residual ATP depletion). A final 30-minutes incubation after 12 μL reagent-2 addition (ADP to ATP conversion and luciferin/luciferase reaction) was performed before luminescent signal acquisition (EnVision™ multimode plate reader-PerkinElmer, Inc.). Data from 10 individual concentrations of tested compounds (N=2) were fitted (XLfit™-ID Business Solutions Ltd) to deliver IC50s (compound concentration leading to 50% inhibition of reference enzymatic activity).
The compounds are dissolved to 5 mM in DMSO. When needed, solutions are sonicated in a bath sonicator.
Table 2 provides the IC50 values of the compounds according to the invention, obtained using the above-mentioned kinase assay. Activities are represented as +++, ++ and +, having the following meanings: • +++ means IC50<10 nM • ++ means 10 nM≤IC50<100 nM • + means 100 nM≤IC50<1 μM.
(ADP-Glo first removes unused ATP, then detects ADP through luciferase.)
With `CC1CCNC(=O)OCc2cc(F)cc(c2)-c2n[nH]c3ccc(cc23)O1` (single isomer, unassigned) [Example 100, (13R) or (13S)-4-fluoro-13-methyl-8,14-dioxa-10,19,20-triazatetracyclo[13.5.2.1^2,6.0^18,21]tricosa-1(20),2(23),3,5,15(22),16,18(21)-heptaen-9-one], the pIC50 is more than 8.00.

Consider `CC1CCNC(=O)OCc2cc(F)cc(c2)-c2n[nH]c3ccc(cc23)O1` (single isomer, unassigned) [Example 101, (13R) or (13S)-4-fluoro-13-methyl-8,14-dioxa-10,19,20-triazatetracyclo[13.5.2.1^2,6.0^18,21]tricosa-1(20),2(23),3,5,15(22),16,18(21)-heptaen-9-one], for which the pIC50 was more than 8.00.

As for `C[C@H]1OC(=O)NCCCOc2ccc3[nH]nc(c3c2)-c2cc(F)cc1c2` (single isomer, unassigned) [Example 108, (7R)- or (7S)-4-fluoro-7-methyl-8,14-dioxa-10,19,20-triazatetracyclo[13.5.2.1^2,6.0^18,21]tricosa-1(20),2,4,6(23),15,17,21-heptaen-9-one], the negative-log IC50 (pIC50) is 7.00 to 8.00.

As to `C[C@H]1OC(=O)NCCCOc2ccc3[nH]nc(c3c2)-c2cc(F)cc1c2` (single isomer, unassigned) [Example 109, (7R)- or (7S)-4-fluoro-7-methyl-8,14-dioxa-10,19,20-triazatetracyclo[13.5.2.1^2,6.0^18,21]tricosa-1(20),2,4,6(23),15,17,21-heptaen-9-one], the negative-log IC50 (pIC50) was more than 8.00.

Turning to `CCC1OC(=O)NCCCOc2ccc3[nH]nc(c3c2)-c2cccc1c2` (single isomer, unassigned) [Example 115, (7R)- or (7S)-7-ethyl-8,14-dioxa-10,19,20-triazatetracyclo[13.5.2.1^2,6.0^18,21]tricosa-1(20),2,4,6(23),15,17,21-heptaen-9-one], the negative logarithm of the IC50 (pIC50) is 6.00 to 7.00.

For `CCC1OC(=O)NCCCOc2ccc3[nH]nc(c3c2)-c2cccc1c2` (single isomer, unassigned) [Example 116, (7R)- or (7S)-7-ethyl-8,14-dioxa-10,19,20-triazatetracyclo[13.5.2.1^2,6.0^18,21]tricosa-1(20),2,4,6(23),15,17,21-heptaen-9-one], the pIC50 is more than 8.00.

In the case of `CC1OC(=O)NCC[C@@H](C)Oc2ccc3[nH]nc(c3c2)-c2ccnc1n2` (single isomer, unassigned) [Example 130, (7R,13R)- or (7S,13R)-7,13-dimethyl-8,14-dioxa-5,10,19,20,23-penta azatetracyclo[13.5.2.1^2,6.0^18,21]tricosa-1(20),2,4,6(23),15,17,21-heptaen-9-one], the pIC50 was 7.00 to 8.00.

With `CC1OC(=O)NCC[C@@H](C)Oc2ccc3[nH]nc(c3c2)-c2ccnc1n2` (single isomer, unassigned) [Example 131, (7R,13R)- or (7S,13R)-7,13-dimethyl-8,14-dioxa-5,10,19,20,23-penta azatetracyclo[13.5.2.1^2,6.0^18,21]tricosa-1(20),2,4,6(23),15,17,21-heptaen-9-one], the pIC50 was more than 8.00.

With `O=C1NCCCOc2ccc3[nH]nc(c3c2)-c2cncc(c2)CO1` [Example 1, 8,14-dioxa-4,10,19,20-tetraazatetracyclo[13.5.2.1^2,6.0^18,21]tricosa-1(20),2,4, 6(23),15,17,21-heptaen-9-one], the pIC50 was more than 8.00.

For the compound `CN1CCCOc2ccc3[nH]nc(c3c2)-c2cncc(c2)COC1=O` [Example 2, 10-methyl-8,14-dioxa-4,10,19,20-tetraazatetracyclo[13.5.2.1^2,6.0^18,21]tricosa-1(20),2,4,6(23),15,17,21-heptaen-9-one], the pIC50 is 7.00 to 8.00.

Take `O=C1NCCCOc2ccc3[nH]nc(c3c2)-c2cc(F)cc(c2)CO1` [Example 3, 4-fluoro-8,14-dioxa-10,19,20-triazatetracyclo[13.5.2.1^2,6.0^18,21]tricosa-1(20), 2,4,6(23),15,17,21-heptaen-9-one]: the negative-log IC50 (pIC50) was more than 8.00.

`O=C1NCCCOc2ccc3[nH]nc(c3c2)-c2cccc(n2)CO1` [Example 4, 8,14-dioxa-10,19,20,23-tetraazatetracyclo[13.5.2.1^2,6.0^18,21]tricosa-1(20),2,4, 6(23),15,17,21-heptaen-9-one]: the pIC50 is more than 8.00.

On to `O=C1NCCCOc2ccc3[nH]nc(c3c2)-c2cccc(c2)CO1` [Example 5, 8,14-dioxa-10,19,20-triazatetracyclo[13.5.2.1^2,6.0^18,21]tricosa-1(20),2,4,6(23), 15,17,21-heptaen-9-one], for which the pIC50 was more than 8.00.

Regarding `CC(C)N1CCCOc2ccc3[nH]nc(c3c2)-c2cncc(c2)COC1=O` [Example 6, 10-(propan-2-yl)-8,14-dioxa-4,10,19,20-tetraazatetracyclo[13.5.2.1^2,6.0^18,21]tricosa-1(20),2,4,6(23),15,17,21-heptaen-9-one], the negative logarithm of the IC50 (pIC50) was 7.00 to 8.00.

Regarding `O=C1NCCCOc2ccc3[nH]nc(c3c2)-c2ccnc(c2)CO1` [Example 7, 8,14-dioxa-5,10,19,20-tetraazatetracyclo[13.5.2.1^2,6.0^18,21]tricosa-1(20),2,4, 6(23),15,17,21-heptaen-9-one], the pIC50 is more than 8.00.

As for `COc1cc2cc(c1)-c1n[nH]c3ccc(cc13)OCCCNC(=O)OC2` [Example 8, 4-methoxy-8,14-dioxa-10,19,20-triazatetracyclo[13.5.2.1^2,6.0^18,21]tricosa-1(20),2,4,6(23),15,17,21-heptaen-9-one], the pIC50 is more than 8.00.

For the compound `O=C1NCCCOc2ccc3[nH]nc(c3c2)-c2ccc(F)c(c2)CO1` [Example 10, 5-fluoro-8,14-dioxa-10,19,20-triazatetracyclo[13.5.2.1^2,6.0^18,21]tricosa-1(20), 2,4,6(23),15,17,21-heptaen-9-one], the negative-log IC50 (pIC50) is more than 8.00.

Regarding `Cc1ccc2cc1COC(=O)NCCCOc1ccc3[nH]nc-2c3c1` [Example 11, 5-methyl-8,14-dioxa-10,19,20-triazatetracyclo[13.5.2.1^2,6.0^18,21]tricosa-1(20),2,4,6(23),15,17,21-heptaen-9-one], the pIC50 was more than 8.00.

In the case of `O=C1NCCCOc2ccc3[nH]nc(c3c2)-c2cc(cc(N3CCCC3)c2)CO1` [Example 12, 4-(pyrrolidin-1-yl)-8,14-dioxa-10,19,20-triazatetracyclo[13.5.2.1^2,6.0^18,21]tricosa-1(20),2,4,6(23),15,17,21-heptaen-9-one], the pIC50 was more than 8.00.

Consider `CC(C)N1CCN(c2cc3cc(c2)-c2n[nH]c4ccc(cc24)OCCCNC(=O)OC3)CC1` [Example 13, 4-[4-(propan-2-yl)piperazin-1-yl]-8,14-dioxa-10,19,20-triazatetracyclo[13.5.2.1^2,6.0^18,21]tricosa-1(20),2,4,6(23),15,17,21-heptaen-9-one], for which the pIC50 is more than 8.00.

Consider `O=C1NCCCOc2ccc3[nH]nc(c3c2)-c2cc(cc(N3CCC4(COC4)C3)c2)CO1` [Example 14, 4-{2-oxa-6-azaspiro[3.4]octan-6-yl}-8,14-dioxa-10,19,20-triazatetracyclo[13.5.2.1^2,6.0^18,21]tricosa-1(20),2,4,6(23),15,17,21-heptaen-9-one], for which the pIC50 was more than 8.00.

Regarding `O=C1NCCCOc2ccc3[nH]nc(c3c2)-c2cc(cc(N3CCN(C4COC4)CC3)c2)CO1` [Example 15, 4-[4-(oxetan-3-yl)piperazin-1-yl]-8,14-dioxa-10,19,20-triazatetracyclo[13.5.2.1^2,6.0^18,21]tricosa-1(20),2,4,6(23),15,17,21-heptaen-9-one], the pIC50 was more than 8.00.

In the case of `O=C1NCCCOc2ccc3[nH]nc(c3c2)-c2cc(cc(N3CCOCC3)c2)CO1` [Example 16, 4-(morpholin-4-yl)-8,14-dioxa-10,19,20-triazatetracyclo[13.5.2.1^2,6.0^18,21]tricosa-1(20),2,4,6(23),15,17,21-heptaen-9-one], the pIC50 is more than 8.00.

Consider `C[C@@H]1CN(c2cc3cc(c2)-c2n[nH]c4ccc(cc24)OCCCNC(=O)OC3)C[C@H](C)O1` [Example 17, 4-[(2R,6S)-2,6-dimethylmorpholin-4-yl]-8,14-dioxa-10,19,20-triazatetra cyclo[13.5.2.1^2,6.0^18,21]tricosa-1(20),2,4,6(23),15,17,21-heptaen-9-one], for which the pIC50 was more than 8.00.

With `Cc1cc2cc(c1)-c1n[nH]c3ccc(cc13)OCCCNC(=O)OC2` [Example 18, 4-methyl-8,14-dioxa-10,19,20-triazatetracyclo[13.5.2.1^2,6.0^18,21]tricosa-1(20),2,4,6(23),15,17,21-heptaen-9-one], the negative logarithm of the IC50 (pIC50) was more than 8.00.

In the case of `COc1ccc2cc1COC(=O)NCCCOc1ccc3[nH]nc-2c3c1` [Example 19, 5-methoxy-8,14-dioxa-10,19,20-triazatetracyclo[13.5.2.1^2,6.0^18,21]tricosa-1(20),2,4,6(23),15,17,21-heptaen-9-one], the pIC50 was more than 8.00.

As to `O=C1NCCCOc2ccc3[nH]nc(c3c2)-c2cc(cc(N3CCC(F)(F)CC3)c2)CO1` [Example 20, 4-(4,4-difluoropiperidin-1-yl)-8,14-dioxa-10,19,20-triazatetracyclo[13.5.2.1^2,6.0^18,21]tricosa-1(20),2,4,6(23),15,17,21-heptaen-9-one], the pIC50 was more than 8.00.
